A short description of data set [1]: Pharmacokinetics of endomorphin-1 liposome (plasma, LC-MS/MS). Particulars: 7.5 mg/kg, after 2 hr. The class given is in vivo, wistar mouse. As to the method:
The plasma concentration of endomorphin-1 of a wistar mouse was analyzed by LC-MS/MS to study the pharmacokinetics of the endomorphin-1 liposome. […] However, the endomorphin-1 liposomes of Examples 14 and 17 prolonged the retention time of the endomorphin-1 in plasma to 24 hr. Also, T1/2 was prolonged from 6 min. to 2.4 hr and 1.8 hr, respectively.

A short description of data set [2]: Serum stability test of met-enkephalin liposome in fetal bovine serum. The class given is in vitro ADME. The conditions noted are these: fetal bovine serum 1:1 (v/v), 37° C. water bath, 0, 1, 2 and 4 hours, gel filtration. The source says:
The 2 carriers provided by Example 5 and fetal bovine serum (FBS) were mixed with 1:1 (v/v) to form a solution.
For orientation: In gel filtration, larger molecules generally elute earlier.

As to `NC(=O)[C@H](Cc1ccccc1)NC(=O)[C@H](Cc1c[nH]c2ccccc12)NC(=O)[C@@H]1CCCN1C(=O)[C@@H](N)Cc1ccc(O)cc1` [endomorphin-1 solution, endomorphin-1], the “plasma concentration of endomorphin-1” value in data set [1] is reported as “no endomorphin-1 was detected”.

As to met-enkephalin [free met-enkephalin], the “residual concentration of met-enkephalin” value in data set [2] is listed as 2%.

The record behind these values is patent US7704956B2, “Glutathione-based delivery system” (Industrial Technology Research Institute, priority 2005, dated 2010).
